# Test results reported in patent US9120804B2, “8-substituted 2-amino-[1,2,4] triazolo [1, 5-A] pyrazines as Syk tryrosine kinase inhibitors and GCN2 serin kinase inhibitors” (Merck Patent GmbH, priority 2012, dated 2015).
# Biological target: T1, SYK (Homo sapiens, UniProt P43405)
# T1 construct: 2.5 nM SYK, 400 nM Biotin-Aha-Aha-KEDPDYEWPSAKK
# Assay: SYK flash plate assay (enzyme assay)
# Type: biochemical
# Procedure, shortened: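 Radiometric Flashplate format: biotinylated peptide substrate (400 nM) and 33P-labelled ATP (10 μM) react with 2.5 nM enzyme for 1 hour at 30 °C in Hepes buffer, pH 7.5. After EDTA quench and washing, counts are taken; staurosporine defines non-specific signal, and IC50 values are derived.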
row,SMILES,IC50 [nM]
1,"COc1cc(Nc2nc3c(N4CCCC(C(N)=O)C4)nccn3n2)cc(OC)c1 (stereo not drawn) [D2, 1-[2-(3,5-dimethoxy-phenylamino)-[1,2,4]triazolo[1,5-a]pyrazin-8-yl]-piperidine-3-carboxylic acid amide]",300 to 3000
2,"CC(=O)NCCNc1nccn2nc(Nc3ccc4c(c3)NC(=O)C4(C)C)nc12 [E103, N-{2-[2-(3,3-dimethyl-2-oxo-2,3-dihydro-1H-indol-6-ylamino)-[1,2,4]triazolo[1,5-a]pyrazin-8-ylamino]-ethyl}-acetamide]",300 to 3000
3,"CC1(C)C(=O)Nc2cc(Nc3nc4c(Nc5n[nH]c(C(F)(F)F)n5)nccn4n3)ccc21 [E60, 3,3-dimethyl-6-[8-(5-trifluoromethyl-1H-[1,2,4]triazol-3-ylamino)-[1,2,4]triazolo[1,5-a]pyrazin-2-ylamino]-1,3-dihydro-indol-2-one]",300 to 3000
4,"CC1(C)C(=O)Nc2cc(Nc3nc4c(N5CCC6(CCNCC6)C5=O)nccn4n3)ccc21 [E141, 2-[2-(3,3-dimethyl-2-oxo-2,3-dihydro-1H-indol-6-ylamino)-[1,2,4]triazolo[1,5-a]pyrazin-8-yl]-2,8-diaza-spiro[4.5]decan-1-one]",100 to 300
5,"CC1(C)CCCc2ccc(-c3nccn4nc(Nc5ccc6c(c5)NC(=O)C6(C)C)nc34)cc21 [E146, 6-[8-(8,8-dimethyl-5,6,7,8-tetrahydro-naphthalen-2-yl)-[1,2,4]triazolo[1,5-a]pyrazin-2-ylamino]-3,3-dimethyl-1,3-dihydro-indol-2-one]",300 to 3000
6,"CC1(C)C(=O)Nc2cc(Nc3nc4c(NCC5CCCNC5)nccn4n3)ccc21 (stereo not drawn) [E79, 3,3-dimethyl-6-{8-[(piperidin-3-ylmethyl)-amino]-[1,2,4]triazolo[1,5-a]pyrazin-2-ylamino}-1,3-dihydro-indol-2-one]",300 to 3000
7,"CC1(C)C(=O)Nc2cc(Nc3nc4c(N5CC6(CCNC6)c6cc(Cl)ccc65)nccn4n3)ccc21 (stereo not drawn) [E130, 6-[8-(5-Chloro-spiro[indole-3,3′-pyrrolidin]-1-yl)-[1,2,4]triazolo[1,5-a]pyrazin-2-ylamino]-3,3-dimethyl-1,3-dihydro-indol-2-one]",300 to 3000
8,"Cc1nc(C2CCN(c3nccn4nc(Nc5ccc6c(c5)NC(=O)C6(C)C)nc34)CC2)[nH]c1C [E37, 6-{8-[4-(4,5-dimethyl-1H-imidazol-2-yl)-piperidin-1-yl]-[1,2,4]triazolo[1,5-a]pyrazin-2-ylamino}-3,3-dimethyl-1,3-dihydro-indol-2-one]",100 to 300
9,"CC1(C)C(=O)Nc2cc(Nc3nc4c(N5C[C@H](OC=O)C[C@@H]5c5ccccc5C(F)(F)F)nccn4n3)ccc21 [E85, formic acid (3R,5R)-1-[2-(3,3-dimethyl-2-oxo-2,3-dihydro-1H-indol-6-ylamino)-[1,2,4]triazolo[1,5-a]pyrazin-8-yl]-5-(2-trifluoromethyl-phenyl)-pyrrolidin-3-yl ester]",3000 to 50000
10,"CC1(C)C(=O)Nc2cc(Nc3nc4c(N5CCC[C@@H]5C(N)=O)nccn4n3)ccc21 [E22, (R)-1-[2-(3,3-dimethyl-2-oxo-2,3-dihydro-1H-indol-6-ylamino)-[1,2,4]triazolo[1,5-a]pyrazin-8-yl]-pyrrolidine-2-carboxylic acid amide]",300 to 3000
11,"CS(=O)(=O)Nc1ccc(-c2nccn3nc(Nc4ccc(N5CCOCC5)cc4)nc23)cc1 [C42, N-{4-[2-(4-morpholin-4-yl-phenylamino)-[1,2,4]triazolo[1,5-a]pyrazin-8-yl]-phenyl}-methanesulfonamide]",300 to 3000
12,"CC1(C)CC(=O)Nc2cc(Nc3nc4c(N5CCCC5c5ccccc5)nccn4n3)ccc21 (stereo not drawn) [E93, 4,4-dimethyl-7-[8-(2-phenyl-pyrrolidin-1-yl)-[1,2,4]triazolo[1,5-a]pyrazin-2-ylamino]-3,4-dihydro-1H-quinolin-2-one]",300 to 3000
13,"CN(C)CCN(C)c1nccn2nc(Nc3ccc4c(c3)NC(=O)C4(C)C)nc12 [E89, 6-{8-[(2-dimethylamino-ethyl)-methyl-amino]-[1,2,4]triazolo[1,5-a]pyrazin-2-ylamino}-3,3-dimethyl-1,3-dihydro-indol-2-one]",300 to 3000
14,"CC1(C)C(=O)Nc2cc(Nc3nc4c(N[C@@H]5CCCNC5)nccn4n3)ccc21 [C87, 3,3-dimethyl-6-[8-((R)-piperidin-3-ylamino)-[1,2,4]triazolo[1,5-a]pyrazin-2-ylamino]-1,3-dihydro-indol-2-one]",100 to 300
15,"CC1(C)CC(=O)Nc2cc(Nc3nc4c(N5CC(O)CC5c5ccccc5)nccn4n3)ccc21 (stereo not drawn) [E96, 7-[8-(4-hydroxy-2-phenyl-pyrrolidin-1-yl)-[1,2,4]triazolo[1,5-a]pyrazin-2-ylamino]-4,4-dimethyl-3,4-dihydro-1H-quinolin-2-one]",300 to 3000
16,"CC1(C)C(=O)Nc2cc(Nc3nc4c(N5CCC(COC=O)C5)nccn4n3)ccc21 (stereo not drawn) [E34, formic acid 1-[2-(3,3-dimethyl-2-oxo-2,3-dihydro-1H-indol-6-ylamino)-[1,2,4]triazolo[1,5-a]pyrazin-8-yl]pyrrolidin-3-ylmethyl ester]",100 to 300

# Other lines, results leading:
row,IC50 [nM],SMILES
1,< 100,"CC1(C)C(=O)Nc2cc(Nc3nc4c(N5CCC6(CNC(=O)O6)C5)nccn4n3)ccc21 (stereo not drawn) [E112, 3,3-dimethyl-6-[8-(2-oxo-1-oxa-3,7-diaza-spiro[4.4]non-7-yl)-[1,2,4]triazolo[1,5-a]pyrazin-2-ylamino]-1,3-dihydro-indol-2-one]"
2,< 100,"CCN(CC)c1nccn2nc(Nc3ccc4c(c3)NC(=O)C4(C)C)nc12 [E92, 6-(8-diethylamino-[1,2,4]triazolo[1,5-a]pyrazin-2-ylamino)-3,3-dimethyl-1,3-dihydro-indol-2-one]"
3,100 to 300,"CC1(C)C(=O)Nc2cc(Nc3nc4c(N5CC[C@]6(CNC(=O)C6)C5)nccn4n3)ccc21 [E52, 3,3-dimethyl-6-[8-((S)-8-oxo-2,7-diaza-spiro[4.4]non-2-yl)-[1,2,4]triazolo[1,5-a]pyrazin-2-ylamino]-1,3-dihydro-indol-2-one]"
4,< 100,"CCC1(O)CCN(c2nccn3nc(Nc4ccc5c(c4)NC(=O)C5(C)C)nc23)CC1 [E44, 6-[8-(4-ethyl-4-hydroxy-piperidin-1-yl)-[1,2,4]triazolo[1,5-a]pyrazin-2-ylamino]-3,3-dimethyl-1,3-dihydro-indol-2-one]"
5,< 100,"CC1(C)C(=O)Nc2cc(Nc3nc4c(N5CCCCCC5)nccn4n3)ccc21 [E57, 6-(8-azepan-1-yl-[1,2,4]triazolo[1,5-a]pyrazin-2-ylamino)-3,3-dimethyl-1,3-dihydro-indol-2-one]"
6,100 to 300,"CC1(C)C(=O)Nc2cc(Nc3nc4c(N5CCC6(CCNC6=O)C5)nccn4n3)ccc21 (stereo not drawn) [E19, 3,3-dimethyl-6-[8-(6-oxo-2,7-diaza-spiro[4.4]non-2-yl)-[1,2,4]triazolo[1,5-a]pyrazin-2-ylamino]-1,3-dihydro-indol-2-one]"
7,100 to 300,"CN(C)CC1(O)CCCN(c2nccn3nc(Nc4ccc5c(c4)NC(=O)C5(C)C)nc23)CC1 (stereo not drawn) [E138, 6-[8-(4-dimethylaminomethyl-4-hydroxy-azepan-1-yl)-[1,2,4]triazolo[1,5-a]pyrazin-2-ylamino]-3,3-dimethyl-1,3-dihydro-indol-2-one]"
8,< 100,"CC1(C)C(=O)Nc2cc(Nc3nc4c(N5CCCC(C(N)=O)C5)nccn4n3)ccc21 (stereo not drawn) [E113, 1-[2-(3,3-dimethyl-2-oxo-2,3-dihydro-1H-indol-6-ylamino)-[1,2,4]triazolo[1,5-a]pyrazin-8-yl]-piperidine-3-carboxylic acid amide]"
9,< 100,"CC1(C)NC(=O)Nc2cc(Nc3nc4c(N5CCC6(CC5)CNC(=O)O6)nccn4n3)ccc21 [E45, 4,4-dimethyl-7-[8-(2-oxo-1-oxa-3,8-diaza-spiro[4.5]dec-8-yl)-[1,2,4]triazolo[1,5-a]pyrazin-2-ylamino]-3,4-dihydro-1H-quinazolin-2-one]"
10,< 100,"CC1(C)C(=O)Nc2cc(Nc3nc4c(NCC5CCNCC5)nccn4n3)ccc21 [E91, 3,3-dimethyl-6-{8-[(piperidin-4-ylmethyl)-amino]-[1,2,4]triazolo[1,5-a]pyrazin-2-ylamino}-1,3-dihydro-indol-2-one]"
11,< 100,"CC1(C)C(=O)Nc2cc(Nc3nc4c(-c5cnn(C6CCOCC6)c5)nccn4n3)ccc21 [E148, 3,3-dimethyl-6-{8-[1-(tetrahydro-pyran-4-yl)-1H-pyrazol-4-yl]-[1,2,4]triazolo[1,5-a]pyrazin-2-ylamino}-1,3-dihydro-indol-2-one]"
12,< 100,"CC1(C)C(=O)Nc2cc(Nc3nc4c(-c5cnc6c(c5)CCCO6)nccn4n3)ccc21 [E116, 6-[8-(3,4-Dihydro-2H-pyrano[2,3-b]pyridin-6-yl)-[1,2,4]triazolo[1,5-a]pyrazin-2-ylamino]-3,3-dimethyl-1,3-dihydro-indol-2-one]"
13,< 100,"CC1(C)C(=O)Nc2cc(Nc3nc4c(N5CCCCC5)nccn4n3)ccc21 [E69, 3,3-dimethyl-6-(8-piperidin-1-yl-[1,2,4]triazolo[1,5-a]pyrazin-2-ylamino)-1,3-dihydro-indol-2-one]"
14,< 100,"CC(C)(O)c1ccc(Nc2nc3c(N4CCCCCC4)nccn3n2)cc1N [E125, 2-[2-amino-4-(8-azepan-1-yl-[1,2,4]triazolo[1,5-a]pyrazin-2-ylamino)-phenyl]-propan-2-ol]"
15,< 100,"CC1(C)CNc2cc(Nc3nc4c(N5CCCCCC5)nccn4n3)ccc21 [E99, (8-azepan-1-yl-[1,2,4]triazolo[1,5-a]pyrazin-2-yl)-(3,3-dimethyl-2,3-dihydro-1H-indol-6-yl)-amine]"
16,< 100,"CC1(C)C(=O)Nc2cc(Nc3nc4c(N5CCC(S(N)(=O)=O)CC5)nccn4n3)ccc21 [E39, 1-[2-(3,3-dimethyl-2-oxo-2,3-dihydro-1H-indol-6-ylamino)-[1,2,4]triazolo[1,5-a]pyrazin-8-yl]-piperidine-4-sulfonic acid amide]"
17,< 100,"CC1(C)CCNc2cc(Nc3nc4c(N5CCC6(CCNC6)C5)nccn4n3)ccc21 (stereo not drawn) [E9, [8-(2,7-diaza-spiro[4.4]non-2-yl)-[1,2,4]triazolo[1,5-a]pyrazin-2-yl]-(4,4-dimethyl-1,2,3,4-tetrahydro-quinolin-7-yl)-amine]"
